{"source": "patent US12453349B2", "about": "“Compositions comprising pyridine carboxylate herbicides and 4-hydroxyphenyl-pyruvate dioxygenase (HPPD) inhibitor herbicides” (Corteva Agriscience LLC, priority 2018, dated 2025)", "assay_type_in_all_cases": "in vivo", "key": {"[1]": {"tested_on": "ABUTH, Abutilon theophrasti (velvetleaf)", "experiment": "Greenhouse postemergence herbicidal effect, visual injury 20-22 d after application", "from_the_text": "(§1) Seeds of the desired test plant species were planted in a 90:10% v/v (volume/volume) mixture of PRO-MIX® BX (Premier Tech Horticulture, Quakertown, PA, USA) and PROFILE® GREENS GRADE™ (Profile Products LLC, Buffalo Grove, IL, USA) planting mixture, which typically has a pH of 5.2 to 6.2 and an organic matter content of at least 50 percent, in plastic pots with a surface area of 103.2 square centimeters (cm^2). In some aspects, to help ensure good germination and healthy plants, a fungicide treatment and/or other chemical or physical treatment was applied. The plants were grown for 7-36 days (d) in a greenhouse with an approximate 14-hour (h) photoperiod which was maintained at about 23° C. during the day and 22° C. during the night. Nutrients and water were added on a regular basis and supplemental lighting was provided with overhead metal halide 1000-Watt lamps as necessary. The plants were employed for testing when they reached the second or third true leaf stage.\n(§2) Emulsifiable concentrates of each of each pyridine carboxylate herbicide (Compound A or Compound B) were prepared at 100 grams acid equivalent per liter (g ae/L). The emulsifiable concentrates also included a safener, cloquintocet mexyl, at 120 grams active ingredient per liter (g ai/L). An aliquot of each emulsifiable concentrate was placed in a 25 mL glass vial and diluted with an aqueous mixture of 1.25% (v/v) ACTIROB® B esterified rapeseed oil (Bayer Crop Science, Research Triangle Park, NC, USA) or MSO® Concentrate with LECI-TECH® methylated soybean oil (Loveland Products, Loveland, CO, USA) to obtain concentrated stock solutions at the highest application rate for each herbicide, based upon a 12 milliliter (mL) application volume at a rate of 187 liters per hectare (L/ha). The concentrated stock solutions were further diluted with an aqueous mixture of 1.25% v/v ACTIROB® B or MSO® Concentrate with LECI-TECH® to obtain stock solutions at reduced application rates for each herbicide. Spray solutions of the herbicide combinations (Compound A or Compound B plus HPPD inhibitor herbicide) were prepared by adding weighed amounts or aliquots of the HPPD inhibitor herbicides to the stock solutions of Compound A or Compound B to form 12-mL spray solutions in two-way combinations.\n(§3) The spray solutions were applied to the plant material with an overhead Mandel track sprayer equipped with 8002E nozzles calibrated to deliver 187 L/ha over an application area of 0.503 square meters (m^2) at a spray height of 18 inches (43 centimeters (cm)) above the average plant canopy. Control plants were sprayed in the same manner with the solvent blank. All pyridine carboxylate herbicide (component a) application rates are given as “g ae/ha” and all HPPD inhibitor herbicide (component b) application rates are given as “g ai/ha.”\n(§4) The treated plants and control plants were placed in a greenhouse as described above and watered by sub-irrigation to prevent wash-off of the test compounds. After 20-22 d, the condition of the test plants as compared with that of the control plants was determined visually and scored on a scale of 0 to 100 percent where 0 corresponds to no injury and 100 corresponds to complete kill."}, "[2]": {"tested_on": "AMARE, Amaranthus retroflexus (pigweed)", "experiment": "Greenhouse postemergence herbicidal effect, visual injury 20-22 d after application", "from_the_text": "as §1, §2, §3, §4"}, "[3]": {"tested_on": "BRSNN, Brassica napus (spring rape)", "experiment": "Greenhouse postemergence herbicidal effect, visual injury 20-22 d after application", "conditions": "Compound A 10 g ae/ha", "from_the_text": "as §1, §2, §3, §4"}, "[4]": {"tested_on": "BRSNW, Brassica napus (winter rape)", "experiment": "Greenhouse postemergence herbicidal effect, visual injury 20-22 d after application", "from_the_text": "as §1, §2, §3, §4"}, "[5]": {"tested_on": "CHEAL, Chenopodium album L. (common lambsquarters)", "experiment": "Greenhouse postemergence herbicidal effect, visual injury 20-22 d after application", "from_the_text": "as §1, §2, §3, §4"}, "[6]": {"tested_on": "DIGSA, Digitaria sanguinalis (large crabgrass)", "experiment": "Greenhouse postemergence herbicidal effect, visual injury 20-22 d after application", "from_the_text": "as §1, §2, §3, §4"}, "[7]": {"tested_on": "ECHCG, Echinochloa crus-galli (barnyard grass)", "experiment": "Greenhouse postemergence herbicidal effect, visual injury 20-22 d after application", "from_the_text": "as §1, §2, §3, §4"}, "[8]": {"tested_on": "EPHHL, Euphorbia heterophylla (poinsettia)", "experiment": "Greenhouse postemergence herbicidal effect, visual injury 20-22 d after application", "from_the_text": "as §1, §2, §3, §4"}, "[9]": {"tested_on": "HELAN, Helianthus annuus (common sunflower)", "experiment": "Greenhouse postemergence herbicidal effect, visual injury 20-22 d after application", "from_the_text": "as §1, §2, §3, §4"}, "[10]": {"tested_on": "IPOHE, Ipomoea hederacea (ivyleaf morningglory)", "experiment": "Greenhouse postemergence herbicidal effect, visual injury 20-22 d after application", "from_the_text": "as §1, §2, §3, §4"}, "[11]": {"tested_on": "KCHSC, Kochia scoparia (kochia)", "experiment": "Greenhouse postemergence herbicidal effect, visual injury 20-22 d after application", "conditions": "Bassia scoparia, post-emergence, KCHSC, read-out: % visual injury Obs", "from_the_text": "as §1, §2, §3, §4"}, "[12]": {"tested_on": "LOLMU, Lolium multiflorum (Italian ryegrass)", "experiment": "Greenhouse postemergence herbicidal effect, visual injury 20-22 d after application", "from_the_text": "as §1, §2, §3, §4"}, "[13]": {"tested_on": "MATCH, Matricaria chamomilla (wild chamomile)", "experiment": "Greenhouse postemergence herbicidal effect, visual injury 20-22 d after application", "from_the_text": "as §1, §2, §3, §4"}, "[14]": {"tested_on": "POLCO, Polygonum convolvulus (wild buckwheat)", "experiment": "Greenhouse postemergence herbicidal effect, visual injury 20-22 d after application", "conditions": "Compound A 10 g ae/ha", "from_the_text": "as §1, §2, §3, §4"}, "[15]": {"tested_on": "SASKR, Salsola kali (Russian thistle)", "experiment": "Greenhouse postemergence herbicidal effect, visual injury 20-22 d after application", "from_the_text": "as §1, §2, §3, §4"}, "[16]": {"tested_on": "SETFA, Setaria faberi (giant foxtail)", "experiment": "Greenhouse postemergence herbicidal effect, visual injury 20-22 d after application", "from_the_text": "as §1, §2, §3, §4"}, "[17]": {"tested_on": "SINAR, Sinapis arvensis (wild mustard)", "experiment": "Greenhouse postemergence herbicidal effect, visual injury 20-22 d after application", "from_the_text": "as §1, §2, §3, §4"}, "[18]": {"tested_on": "STEME, Stellaria media (chickweed)", "experiment": "Greenhouse postemergence herbicidal effect, visual injury 20-22 d after application", "from_the_text": "as §1, §2, §3, §4"}, "[19]": {"tested_on": "VIOTR, Viola tricolor (wild pansy)", "experiment": "Greenhouse postemergence herbicidal effect, visual injury 20-22 d after application", "from_the_text": "as §1, §2, §3, §4"}, "[20]": {"tested_on": "HORVS, Hordeum vulgare (spring barley)", "experiment": "Greenhouse postemergence phytotoxicity on crop, visual injury 20-22 d after application", "from_the_text": "as §1, §2, §3, §4"}, "[21]": {"tested_on": "TRZAS, Triticum aestivum (spring wheat)", "experiment": "Greenhouse postemergence phytotoxicity on crop, visual injury 20-22 d after application", "from_the_text": "as §1, §2, §3, §4"}}, "note": "“And” between values parts separate entries of the source, which are not always exact repeats. Equal values may be shown once."}
{"smiles": "N#CCOC(=O)c1nc(-c2ccc3cc[nH]c3c2F)c(F)c(N)c1Cl", "note": "[Compound A, cyanomethyl 4-amino-3-chloro-5-fluoro-6-(7-fluoro-1H-indol-6-yl)pyridine-2-carboxylate]", "values": [{"measurement": "% visual injury Obs", "setting": "[1]; Compound A 7.5 g ae/ha", "result": 40, "unit": "%"}, {"measurement": "% visual injury Obs", "setting": "[1]; Compound A 10 g ae/ha", "result": 48, "unit": "%"}, {"measurement": "% visual injury Obs", "setting": "[2]; Compound A 7.5 g ae/ha", "result": "80% and 90% and 70%"}, {"measurement": "% visual injury Obs", "setting": "[2]; Compound A 10 g ae/ha", "result": "85% and 90%"}, {"measurement": "% visual injury Obs", "setting": "[3]", "result": "45% and 60%"}, {"measurement": "% visual injury Obs", "setting": "[4]; Compound A 7.5 g ae/ha", "result": "35% and 63%"}, {"measurement": "% visual injury Obs", "setting": "[4]; Compound A 10 g ae/ha", "result": "40% and 68%"}, {"measurement": "% visual injury Obs", "setting": "[5]; Compound A 7.5 g ae/ha", "result": "75% and 70%"}, {"measurement": "% visual injury Obs", "setting": "[5]; Compound A 10 g ae/ha", "result": "80% and 78%"}, {"measurement": "% visual injury Obs", "setting": "[6]; Compound A 7.5 g ae/ha", "result": 13, "unit": "%"}, {"measurement": "% visual injury Obs", "setting": "[6]; Compound A 10 g ae/ha", "result": 25, "unit": "%"}, {"measurement": "% visual injury Obs", "setting": "[7]; Compound A 7.5 g ae/ha", "result": 80, "unit": "%"}, {"measurement": "% visual injury Obs", "setting": "[7]; Compound A 10 g ae/ha", "result": 88, "unit": "%"}, {"measurement": "% visual injury Obs", "setting": "[8]; Compound A 7.5 g ae/ha", "result": 91, "unit": "%"}, {"measurement": "% visual injury Obs", "setting": "[8]; Compound A 10 g ae/ha", "result": 83, "unit": "%"}, {"measurement": "% visual injury Obs", "setting": "[9]; Compound A 7.5 g ae/ha", "result": 83, "unit": "%"}, {"measurement": "% visual injury Obs", "setting": "[9]; Compound A 10 g ae/ha", "result": 88, "unit": "%"}, {"measurement": "% visual injury Obs", "setting": "[10]; Compound A 7.5 g ae/ha", "result": 5, "unit": "%"}, {"measurement": "% visual injury Obs", "setting": "[10]; Compound A 10 g ae/ha", "result": 0, "unit": "%"}, {"measurement": "pest or weed control at 7.5 g/ha", "setting": "[11]; Compound A 7.5 g ae/ha", "result": 63, "unit": "%"}, {"measurement": "pest or weed control at 10 g/ha", "setting": "[11]; Compound A 10 g ae/ha", "result": 70, "unit": "%"}, {"measurement": "% visual injury Obs", "setting": "[12]; Compound A 7.5 g ae/ha", "result": 8, "unit": "%"}, {"measurement": "% visual injury Obs", "setting": "[12]; Compound A 10 g ae/ha", "result": 3, "unit": "%"}, {"measurement": "% visual injury Obs", "setting": "[13]; Compound A 7.5 g ae/ha", "result": "10% and 18%"}, {"measurement": "% visual injury Obs", "setting": "[13]; Compound A 10 g ae/ha", "result": "20% and 30%"}, {"measurement": "% visual injury Obs", "setting": "[14]", "result": "70% and 43%"}, {"measurement": "% visual injury Obs", "setting": "[15]; Compound A 7.5 g ae/ha", "result": 60, "unit": "%"}, {"measurement": "% visual injury Obs", "setting": "[15]; Compound A 10 g ae/ha", "result": 63, "unit": "%"}, {"measurement": "% visual injury Obs", "setting": "[16]; Compound A 7.5 g ae/ha", "result": 60, "unit": "%"}, {"measurement": "% visual injury Obs", "setting": "[16]; Compound A 10 g ae/ha", "result": 78, "unit": "%"}, {"measurement": "% visual injury Obs", "setting": "[17]; Compound A 7.5 g ae/ha", "result": "83% and 85%"}, {"measurement": "% visual injury Obs", "setting": "[17]; Compound A 10 g ae/ha", "result": 88, "unit": "%"}, {"measurement": "% visual injury Obs", "setting": "[18]; Compound A 7.5 g ae/ha", "result": 90, "unit": "%"}, {"measurement": "% visual injury Obs", "setting": "[18]; Compound A 10 g ae/ha", "result": 85, "unit": "%"}, {"measurement": "% visual injury Obs", "setting": "[19]; Compound A 7.5 g ae/ha", "result": 3, "unit": "%"}, {"measurement": "% visual injury Obs", "setting": "[19]; Compound A 10 g ae/ha", "result": 3, "unit": "%"}, {"measurement": "% visual injury Obs", "setting": "[20]; Compound A 7.5 g ae/ha", "result": "8% and 0%"}, {"measurement": "% visual injury Obs", "setting": "[20]; Compound A 10 g ae/ha", "result": 0, "unit": "%"}, {"measurement": "% visual injury Obs", "setting": "[21]; Compound A 7.5 g ae/ha", "result": 0, "unit": "%"}, {"measurement": "% visual injury Obs", "setting": "[21]; Compound A 10 g ae/ha", "result": 0, "unit": "%"}]}
